Source: publication PMC6123382, “Phosphorylation of the Amyloid-Beta Peptide Inhibits Zinc-Dependent Aggregation, Prevents Na,K-ATPase Inhibition, and Reduces Cerebral Plaque Deposition” (Frontiers in Molecular Neuroscience, 2018)
Where no end group is shown, it is not given here.

Legend:
[1] = target: Na^+/K^+-ATPase (α1β1 isozyme) (Anas platyrhynchos, UniProt Q6TG02+Q7ZYV1); assay: Isothermal titration calorimetry of binding to Na+/K+-ATPase; set-up: species or system duck (salt glands); details: ITC, 25°C
Protocol: The purified preparation of Na^+/K^+-ATPase (α1β1 isozyme) was obtained from duck salt glands as described elsewhere ([Petrushanko et al., 2016]).
The thermodynamic parameters of amyloid peptides binding to Na^+/K^+-ATPase were measured using a MicroCal iTC200 instrument, as described elsewhere ([Mitkevich et al., 2012]; [Petrushanko et al., 2014]). Experiments were carried out at 25°C in 10 mM imidazole buffer (pH 7.5), containing 130 mM NaCl, 30 mM KCl, 3 mM MgCl2. Aliquots (2.6 μl) of ligands were injected into a 0.2-ml cell containing protein solution to achieve a complete binding isotherm. Protein concentration in the cell ranged from 10 to 20 μM, and ligand concentration in the syringe ranged from 100 to 200 μM. The resulting titration curves were fitted using the MicroCal Origin software, assuming one set of binding sites. Affinity constants (Ka), enthalpy variations (ΔH) and stoichiometry of binding (N) were determined and the Gibbs energy (ΔG) and entropy variations (ΔS) were calculated from the equation: ΔG = −RTlnKa = ΔH-TΔS.

[2] = cited from earlier work
Excerpt: Recently, it has been shown that Aβ undergoes phosphorylation at Ser8 both in vitro and in vivo ([Kumar et al., 2011], [2013]). […] Recently, pS8-Aβ was obtained in vitro by Aβ phosphorylation with protein kinase A and was subsequently identified in vivo ([Kumar et al., 2011], [2013]). Based on the oligomeric state of pS8-Aβ derived from brain tissue of A ...

[3] = target: Na+/K+-ATPase (α1β1 isozyme) from duck salt glands (duck); assay: ITC; peptide (100-200 μM, syringe) injected into Na+/K+-ATPase (10-20 μM, cell); 25°C; 10 mM imidazole pH 7.5, 130 mM NaCl, 30 mM KCl, 3 mM MgCl2; fit with one set of binding sites
[4] = 10 mM imidazole buffer (pH 7.5), 130 mM NaCl, 30 mM KCl, 3 mM MgCl2
[5] = pH 7.5, calculated from ΔG = −RTlnKa = ΔH-TΔS

With LVFFAEDVGSNKGAIIGLMVGGVVIA [Aβ17–42] the “detectability of binding to Na+,K+-ATPase” value [1, 4] was “Binding was detectable”, the ΔH [1, 4] was -2.27 kcal/mol and the Ka ([1]; 10 mM imidazole buffer (pH 7.5), 130 mM NaCl, 30 mM KCl, 3 mM MgCl2, one set of binding sites) was 260000 M⁻¹. For the same substance, the TΔS [1, 5] was 5.13 kcal/mol and the ΔG [1, 5] was -7.4 kcal/mol.

For “pS8-Aβ40: Aβ40 phosphorylated at Ser8 (literature)”, the aggregation in vitro ([2]; absence of divalent cations, ref Kumar et al. (2011)) is listed as “accelerated aggregation”.

In the case of “pS8-Aβ: phosphorylated Ser8-containing β-amyloid peptide (length not stated, literature)”, the “aggregation in absence of zinc ions” value ([2]; in vitro, absence of zinc ions, ref Rezaei-Ghaleh et al., 2016, Jamasbi et al., 2017) is given as “fast-aggregating peptide species”.

Substance “β-amyloid peptide 17–42 (Aβ17-42), C-terminal hydrophobic fragment” has a Ka [3] of 260000 M⁻¹, a Kd [3] of 3.8 µM and a dH [3] of -2.27 kcal/mol.
